# In ChEMBL document CHEMBL5241073, “Pharmacological Targeting of Executioner Proteins: Controlling Life and Death” (J Med Chem, 2021):
# Target: Apoptosis regulator BAX (Homo sapiens, UniProt Q07812)
# Assay: Inhibition of recombinant human BAX expressed in Escherichia coli BL21 (DE3) assessed as inhibition of liposome permeabilization and measured for 2 hrs by fluorescence analysis
# Apoptosis regulator BAX, sequence (Q07812 whole entry): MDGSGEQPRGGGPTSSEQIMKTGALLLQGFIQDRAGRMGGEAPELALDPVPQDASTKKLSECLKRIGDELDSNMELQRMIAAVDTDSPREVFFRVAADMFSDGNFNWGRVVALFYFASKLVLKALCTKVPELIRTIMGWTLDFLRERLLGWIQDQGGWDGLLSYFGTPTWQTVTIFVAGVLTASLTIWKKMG
row,Structure (SMILES),IC50
1,COCCOCOc1ccc2c(c1)O[C@H](CN)[C@H]2N(Cc1ccc(Br)cc1)C(=O)[C@H](Cc1ccccc1)NC(=O)c1ccccc1,6 µM
2,COCCOCOc1ccc2c(c1)O[C@H](CN(Cc1ccc(Br)cc1)C(=O)[C@H](Cc1ccccc1)NC(=O)c1ccccc1)[C@H]2N,4 µM
